Laboratory results published in the CheMixHub ionic liquid set.

Assay: xn = mol fraction of the nth substance listed
Settings: 101 kPa

CCCCCCCCCCCCCCCC[N+](C)(C)C.[Br-] + NCC(=O)O + O
viscosity [mPa·s]
Settings	298.15 K	303.15 K	308.15 K	313.15 K
x2 = 0.003591, x1 = 3.46e-06	0.906	0.819	0.74	0.67
x2 = 0.003591, x1 = 8.2e-06	0.909	0.82	0.742	0.671
x2 = 0.003591, x1 = 1.13e-05	0.912	0.82	0.745	0.672
x2 = 0.003591, x1 = 1.44e-05	0.914	0.825	0.749	0.674
x2 = 0.003591, x1 = 1.731e-05	0.922	0.827	0.752	0.675
x2 = 0.003591, x1 = 2.096e-05	0.93	0.831	0.755	0.678
x2 = 0.003591, x1 = 2.333e-05	0.932	0.843	0.757	0.68
x2 = 0.003591, x1 = 2.752e-05	0.936	0.847	0.759	0.683
x2 = 0.003591, x1 = 3.171e-05	0.94	0.853	0.761	0.689
x2 = 0.003591, x1 = 3.572e-05	0.94	0.855	0.764	0.692
x2 = 0.005377, x1 = 3.48e-06	0.879	0.801	0.725	0.644
x2 = 0.005377, x1 = 8.25e-06	0.881	0.804	0.726	0.644
x2 = 0.005377, x1 = 1.136e-05	0.884	0.805	0.726	0.645
x2 = 0.005377, x1 = 1.448e-05	0.886	0.807	0.727	0.647
x2 = 0.005377, x1 = 1.741e-05	0.89	0.808	0.728	0.648
x2 = 0.005377, x1 = 2.108e-05	0.893	0.811	0.731	0.649
x2 = 0.005377, x1 = 2.346e-05	0.896	0.813	0.733	0.65
x2 = 0.005377, x1 = 2.767e-05	0.9	0.816	0.736	0.651
x2 = 0.005377, x1 = 3.189e-05	0.906	0.823	0.738	0.653
x2 = 0.005377, x1 = 3.592e-05	0.912	0.828	0.741	0.655
x2 = 0.007156, x1 = 3.5e-06	0.914	0.848	–	–
x2 = 0.007156, x1 = 8.29e-06	0.918	0.852	–	–
x2 = 0.007156, x1 = 1.143e-05	0.92	0.855	–	–
x2 = 0.007156, x1 = 1.456e-05	0.922	0.859	–	–
x2 = 0.007156, x1 = 1.751e-05	0.925	0.864	–	–
x2 = 0.007156, x1 = 2.119e-05	0.926	0.868	–	–
x2 = 0.007156, x1 = 2.359e-05	0.929	0.872	–	–
x2 = 0.007156, x1 = 2.783e-05	0.933	0.876	–	–
x2 = 0.007156, x1 = 3.206e-05	0.937	0.882	–	–
x2 = 0.007156, x1 = 3.612e-05	0.944	0.886	–	–

CCCCCCCCCCCCCCCC[n+]1ccccc1.[Cl-] + NCC(=O)O + O
308.15 K
Settings	electrical conductivity [S/m]
x2 = 0, x1 = 5.4e-07	0.000222
x2 = 0, x1 = 9e-07	0.00029
x2 = 0, x1 = 1.62e-06	0.0004
x2 = 0, x1 = 2.34e-06	0.000465
x2 = 0, x1 = 2.88e-06	0.000581
x2 = 0, x1 = 3.78e-06	0.000705
x2 = 0, x1 = 4.5e-06	0.000794
x2 = 0, x1 = 5.59e-06	0.000937
x2 = 0, x1 = 6.85e-06	0.00106
x2 = 0, x1 = 7.93e-06	0.001222
x2 = 0, x1 = 9.01e-06	0.001438
x2 = 0, x1 = 1.009e-05	0.00159
x2 = 0, x1 = 1.117e-05	0.001701
x2 = 0, x1 = 1.442e-05	0.00209
x2 = 0, x1 = 1.55e-05	0.00219
x2 = 0, x1 = 1.766e-05	0.00237
x2 = 0, x1 = 1.982e-05	0.00248
x2 = 0, x1 = 2.18e-05	0.00259
x2 = 0, x1 = 2.397e-05	0.00264
x2 = 0, x1 = 2.595e-05	0.00278
x2 = 0, x1 = 2.991e-05	0.00297
x2 = 0, x1 = 3.406e-05	0.00314
x2 = 0, x1 = 3.784e-05	0.00328
x2 = 0, x1 = 4.162e-05	0.00342
x2 = 0, x1 = 4.541e-05	0.00356
x2 = 0, x1 = 4.919e-05	0.00369
x2 = 0, x1 = 5.099e-05	0.00375
x2 = 0, x1 = 5.982e-05	0.00403
x2 = 0, x1 = 6.829e-05	0.00432
x2 = 0, x1 = 7.64e-05	0.00454
x2 = 0, x1 = 8.415e-05	0.00477
x2 = 0, x1 = 9.171e-05	0.00497
x2 = 0, x1 = 9.892e-05	0.00516
x2 = 0, x1 = 0.0001058	0.00533
x2 = 0, x1 = 0.0001124	0.0055
x2 = 0, x1 = 0.0001189	0.00565
x2 = 2.018e-05, x1 = 5.4e-07	0.0001
x2 = 2.018e-05, x1 = 9e-07	0.000245
x2 = 2.018e-05, x1 = 1.62e-06	0.000348
x2 = 2.018e-05, x1 = 2.34e-06	0.000456
x2 = 2.018e-05, x1 = 2.88e-06	0.000621
x2 = 2.018e-05, x1 = 3.78e-06	0.000716
x2 = 2.018e-05, x1 = 4.51e-06	0.000822
x2 = 2.018e-05, x1 = 5.59e-06	0.000964
x2 = 2.018e-05, x1 = 6.85e-06	0.00108
x2 = 2.018e-05, x1 = 7.93e-06	0.001203
x2 = 2.018e-05, x1 = 9.01e-06	0.001314
x2 = 2.018e-05, x1 = 1.009e-05	0.001427
x2 = 2.018e-05, x1 = 1.117e-05	0.001546
x2 = 2.018e-05, x1 = 1.334e-05	0.001813
x2 = 2.018e-05, x1 = 1.55e-05	0.00205
x2 = 2.018e-05, x1 = 1.766e-05	0.00226
x2 = 2.018e-05, x1 = 1.982e-05	0.0024
x2 = 2.018e-05, x1 = 2.181e-05	0.00252
x2 = 2.018e-05, x1 = 2.397e-05	0.00262
x2 = 2.018e-05, x1 = 2.595e-05	0.0027
x2 = 2.018e-05, x1 = 3.009e-05	0.00285
x2 = 2.018e-05, x1 = 3.406e-05	0.00306
x2 = 2.018e-05, x1 = 3.802e-05	0.00323
x2 = 2.018e-05, x1 = 4.181e-05	0.00336
x2 = 2.018e-05, x1 = 4.559e-05	0.0035
x2 = 2.018e-05, x1 = 4.92e-05	0.00362
x2 = 2.018e-05, x1 = 5.1e-05	0.00368
x2 = 2.018e-05, x1 = 6.001e-05	0.00392
x2 = 2.018e-05, x1 = 6.848e-05	0.00422
x2 = 2.018e-05, x1 = 7.658e-05	0.00445
x2 = 2.018e-05, x1 = 8.433e-05	0.00467
x2 = 2.018e-05, x1 = 9.19e-05	0.00486
x2 = 2.018e-05, x1 = 9.911e-05	0.00506
x2 = 2.018e-05, x1 = 0.000106	0.00523
x2 = 2.018e-05, x1 = 0.0001126	0.00538
x2 = 2.018e-05, x1 = 0.0001191	0.00553
x2 = 0.0002, x1 = 5.4e-07	0.000232
x2 = 0.0002, x1 = 9e-07	0.000298
x2 = 0.0002, x1 = 1.62e-06	0.00042
x2 = 0.0002, x1 = 2.16e-06	0.000524
x2 = 0.0002, x1 = 2.89e-06	0.000628
x2 = 0.0002, x1 = 3.79e-06	0.000685
x2 = 0.0002, x1 = 4.51e-06	0.000861
x2 = 0.0002, x1 = 5.59e-06	0.001036
x2 = 0.0002, x1 = 6.67e-06	0.00115
x2 = 0.0002, x1 = 7.75e-06	0.00127
x2 = 0.0002, x1 = 8.84e-06	0.001426
x2 = 0.0002, x1 = 9.92e-06	0.00157
x2 = 0.0002, x1 = 1.1e-05	0.00168
x2 = 0.0002, x1 = 1.316e-05	0.001913
x2 = 0.0002, x1 = 1.533e-05	0.00214
x2 = 0.0002, x1 = 1.731e-05	0.00228
x2 = 0.0002, x1 = 1.947e-05	0.00243
x2 = 0.0002, x1 = 2.146e-05	0.00253
x2 = 0.0002, x1 = 2.344e-05	0.00262
x2 = 0.0002, x1 = 2.56e-05	0.00272
x2 = 0.0002, x1 = 2.957e-05	0.00291
x2 = 0.0002, x1 = 3.336e-05	0.00307
x2 = 0.0002, x1 = 3.732e-05	0.00323
x2 = 0.0002, x1 = 4.111e-05	0.00337
x2 = 0.0002, x1 = 4.472e-05	0.0035
x2 = 0.0002, x1 = 4.832e-05	0.00363
x2 = 0.0002, x1 = 5.012e-05	0.0037
x2 = 0.0002, x1 = 5.878e-05	0.00399
